Laboratory results: patent US9284297B2, “Halofuginone analogs for inhibition of tRNA synthetases and uses thereof” (President and Fellows of Harvard College, priority 2008, dated 2016)

Columns and labels:
[1] = tested on: TGFβ-induced Smad phosphorylation and lymphocyte responses to TGFβ; test: TGFβ signaling in T and B cells; assay type: cell-based, murine; conditions: low dose HF; 10 μM SB-431542
Experimental: FIG. 10. […] FIG. 10A is a set of FACS analyses of CD4^+ CD25^− T cells activated in Th1 or Th2 polarizing conditions, either in the presence or absence of TGFβ. DMSO, 10 nM HF, 10 nM MAZ1310, or 10 μM SB-431542 added as indicated at the time of activation. Intracellular cytokine staining was performed on expanded T cells on day 5.
FIG. 10D depicts western blot analyses of purified CD4^+ CD25^− T cells treated with DMSO, 40 nM MAZ1310, titrating concentrations of HF (2.5-40 nM) or 10 μM SB-431542 for 30 minutes in complete medium supplemented with 0.1% fetal calf serum. T cells were then activated in the presence or absence of 3 ng/ml TGFβ. Whole cell extracts were prepared after 1 hour of stimulation and western blot analyses were performed using the indicated antibodies.
Th17 differentiation is synergistically regulated by TGFβ and the pro-inflammatory cytokines IL-6 and IL-21. […] Since STAT3 is the major transducer of IL-6 and IL-21 signaling, the kinetics of STAT3 phosphorylation in HF-treated T cells were examined.
Whole cell lysates were generated from T cells activated for the indicated times. For STAT3 and Smad2/3 western blots cells were harvested, washed in PBS and lysed in 50 mM Tris, pH 7.4, 0.1% SDS, 1% Triton-X100, 140 mM NaCl, 1 mM EDTA, 1 mM EGTA supplemented with protease inhibitors tablets (Roche, Germany), 1 mM NaF and 1 mM Na3VO4. […]

[2] = molecular target: T1, Prolyl-tRNA synthetase (EPRS) purified from rabbit liver (Oryctolagus cuniculus, UniProt G1T2I4); test: Purified EPRS, 14C-labeled proline incorporation into tRNA; assay type: biochemical; conditions: 10 μM, 4 μM, 1 μM HF
T1 construct: Prolyl-tRNA synthetase (EPRS) purified from rabbit liver; from tissue; host or cells: rabbit liver
T1 sequence (G1T2I4 1-1447): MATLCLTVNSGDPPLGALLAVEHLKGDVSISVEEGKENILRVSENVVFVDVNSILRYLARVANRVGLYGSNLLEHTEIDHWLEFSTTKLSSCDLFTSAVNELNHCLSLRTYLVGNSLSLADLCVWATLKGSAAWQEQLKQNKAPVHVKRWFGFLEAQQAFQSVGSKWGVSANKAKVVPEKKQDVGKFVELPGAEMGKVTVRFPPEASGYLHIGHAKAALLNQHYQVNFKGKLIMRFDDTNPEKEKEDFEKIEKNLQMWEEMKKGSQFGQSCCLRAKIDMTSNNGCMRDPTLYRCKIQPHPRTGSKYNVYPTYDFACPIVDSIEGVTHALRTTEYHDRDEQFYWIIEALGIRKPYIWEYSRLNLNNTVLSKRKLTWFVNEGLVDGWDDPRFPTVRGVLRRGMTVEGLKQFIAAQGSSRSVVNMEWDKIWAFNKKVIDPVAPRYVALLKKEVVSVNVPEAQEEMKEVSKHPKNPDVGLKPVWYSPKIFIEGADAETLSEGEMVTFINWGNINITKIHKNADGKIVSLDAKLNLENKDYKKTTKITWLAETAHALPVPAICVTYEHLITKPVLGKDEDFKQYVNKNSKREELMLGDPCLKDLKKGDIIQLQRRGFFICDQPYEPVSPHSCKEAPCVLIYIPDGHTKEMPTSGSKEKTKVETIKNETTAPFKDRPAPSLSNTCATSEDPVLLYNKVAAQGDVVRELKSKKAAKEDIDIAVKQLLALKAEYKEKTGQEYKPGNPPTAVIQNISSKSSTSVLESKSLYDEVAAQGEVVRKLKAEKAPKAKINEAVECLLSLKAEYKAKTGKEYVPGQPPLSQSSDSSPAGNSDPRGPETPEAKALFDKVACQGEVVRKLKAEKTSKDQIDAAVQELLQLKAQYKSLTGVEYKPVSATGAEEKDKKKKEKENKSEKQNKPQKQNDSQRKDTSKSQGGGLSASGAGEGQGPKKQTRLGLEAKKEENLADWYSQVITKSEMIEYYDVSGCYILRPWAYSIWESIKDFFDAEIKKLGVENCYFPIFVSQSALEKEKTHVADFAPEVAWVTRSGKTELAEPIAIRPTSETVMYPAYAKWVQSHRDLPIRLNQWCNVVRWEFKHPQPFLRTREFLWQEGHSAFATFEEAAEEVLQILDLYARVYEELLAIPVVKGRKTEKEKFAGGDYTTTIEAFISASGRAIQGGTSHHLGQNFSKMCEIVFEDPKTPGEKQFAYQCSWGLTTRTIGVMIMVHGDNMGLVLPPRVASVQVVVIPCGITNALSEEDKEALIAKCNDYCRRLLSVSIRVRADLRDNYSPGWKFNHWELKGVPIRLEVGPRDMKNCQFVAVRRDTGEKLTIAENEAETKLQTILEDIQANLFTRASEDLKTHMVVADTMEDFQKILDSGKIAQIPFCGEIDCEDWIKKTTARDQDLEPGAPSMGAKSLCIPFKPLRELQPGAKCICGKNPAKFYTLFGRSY
Experimental: Purified enzyme was incubated with 100 μg/ml bovine tRNA, 50 μM ^14C-labeled proline, 5 mM ATP, and 10 mM MgCl2 for 20 minutes. Charged tRNA was isolated by precipitation on Whatman filter paper and washing with cold 5% TCA. TCA precipitable counts were assayed by scintillation counting.

[3] = tested on: Th17 differentiation of CD4+ CD25− T cells; conditions: read-out: 50% inhibition of IL-17 expressing cell (Th17) development; cited from earlier work
[4] = tested on: CD4+ CD25− T cells (Th1, Th2, iTreg differentiation, proliferation, CD25), CD8+ T cells, B cells; conditions: cited from earlier work
[5] = tested on: TGFβ-induced Smad phosphorylation and lymphocyte responses to TGFβ; conditions: cited from earlier work

O=C(CC1NCCCC1O)Cn1cnc2cc(Br)c(Cl)cc2c1=O (centres unmarked) [Compound 1, 7-bromo-6-chloro-3-[3-(3-hydroxy-2-piperidinyl)-2-oxopropyl]-4(3H)-quinazolinone]
effect on TGFβ-induced Smad phosphorylation and other lymphocyte responses to TGFβ [1]: inhibited neither TGFβ-induced Smad phosphorylation nor a variety of other lymphocyte responses to TGFβ | inhibition of purified EPRS (TCA precipitable counts) [2]: directly inhibits purified mammalian EPRS | IC50 [3]: ~3 nM | concentrations that generally inhibit CD4+ T cell, CD8+ T cell, and B220+ B cell activation [4]: 20 to 40 nM | concentrations attenuating TGFβ signaling [5]: > 50 nM
